Columns and labels:
Assay in all cases: Test F preemergence test
naked crabgrass = format: in vivo, Digitaria nuda; conditions: scale 0 to 100
From the text: (§1) Seeds of plant species selected from bermudagrass (Cynodon dactylon), Surinam grass (Brachiaria decumbens), large crabgrass (Digitaria sanguinalis), green foxtail (Setaria viridis), goosegrass (Eleusine indica), johnsongrass (Sorghum halepense), kochia (Kochia scoparia), pitted morningglory (Ipomoea lacunosa), purple nutsedge (Cyperus rotundus), common ragweed (Ambrosia elation), mustard (Brassica nigra), guineagrass (Panicum maximum), […] (Paspalum dilatatum), barnyardgrass (Echinochloa crus-galli), southern sandbur (Cenchrus echinatus), common sowthistle (Sonchus oleraceous), prickly […] spinosa), Italian ryegrass (Lolium multiflorum), common purslane (Portulaca oleracea), broadleaf signalgrass (Brachiaria platyphylla), common groundsel (Senecio vulgaris), common chickweed (Stellaria media), Virginia dayflower (Commelina virginica), annual bluegrass (Poa annua), naked crabgrass (Digitaria nuda), […] cochinchinensis), quackgrass (Elytrigia repens), Canada horseweed (Conyza canadensis), field bindweed (Convolvulus arvensis), […] (Bidens bipinnata), common mallow (Malva sylvestris), Russian thistle (Salsola kali), and sugarcane (Saccharum officinarum) were planted and treated preemergence with test chemicals formulated in a non-phytotoxic solvent mixture which included a surfactant. At a different time, sugarcane was treated with postemergence applications of some of the test chemicals formulated in the same manner. Plants were approximately 3- to 4-leaf stage for the postemergence treatments. Treated plants and controls were maintained in a greenhouse for 14 to 21 days, after which time all species were compared to controls and visually evaluated. […] A dash (-) response means no test result.

common purslane = format: in vivo, Portulaca oleracea; conditions: scale 0 to 100
From the text: as §1

mustard = format: in vivo, Brassica nigra; conditions: scale 0 to 100
From the text: as §1

southern sandbur = format: in vivo, Cenchrus echinatus; conditions: scale 0 to 100
From the text: as §1

barnyardgrass = format: in vivo, Echinochloa crus-galli
From the text: as §1

green foxtail = format: in vivo, Setaria viridis; conditions: scale 0 to 100
From the text: as §1

field bindweed = format: in vivo, Convolvulus arvensis; conditions: scale 0 to 100
From the text: as §1

common ragweed = format: in vivo, Ambrosia elation; conditions: scale 0 to 100
From the text: as §1

prickly sida = format: in vivo, Sida spinosa; conditions: scale 0 to 100
From the text: as §1

quackgrass = format: in vivo, Elytrigia repens; conditions: scale 0 to 100
From the text: as §1

Surinam grass = format: in vivo, Brachiaria decumbens; conditions: scale 0 to 100; for Plant response rating, Surinam Grass: Preemergence
From the text: as §1

large crabgrass = format: in vivo, Digitaria sanguinalis; conditions: scale 0 to 100
From the text: as §1

bermudagrass = format: in vivo, Cynodon dactylon; conditions: scale 0 to 100
From the text: as §1

guineagrass = format: in vivo, Panicum maximum; conditions: scale 0 to 100
From the text: as §1

annual bluegrass = format: in vivo, Poa annua; conditions: scale 0 to 100
From the text: as §1

Italian ryegrass = format: in vivo, Lolium multiflorum; conditions: scale 0 to 100; for Plant response rating, Ryegrass, Italian: Preemergence
From the text: as §1

## Cc1cc([S+]([O-])Cc2c(C(F)(F)F)nn(C)c2OCC(F)(F)F)[n+]([O-])cc1Cl (stereo not shown) [Compound 70]
Naked crabgrass; 16 g ai/ha, preemergence
  Plant response rating, Crabgrass, Naked: 90
Naked crabgrass; 62 g ai/ha, Preemergence
  Crabgrass, Naked plant response rating: 100
Naked crabgrass; 125 g ai/ha, preemergence
  Crabgrass, Naked plant response rating: 100
Naked crabgrass; Preemergence, 31 g ai/ha
  Plant response rating, Crabgrass, Naked: 90
Common purslane; 62 g ai/ha, Preemergence
  Purslane plant response rating: 75
Common purslane; 125 g ai/ha, preemergence
  Purslane plant response rating: 75
Common purslane; Preemergence, 31 g ai/ha
  Plant response rating, Purslane: 35
mustard; 16 g ai/ha, preemergence
  Plant response rating, Black Mustard: 90
mustard; 62 g ai/ha, Preemergence
  Black Mustard plant response rating: 100
mustard; 125 g ai/ha, preemergence
  Black Mustard plant response rating: 100
mustard; Preemergence, 31 g ai/ha
  Plant response rating, Black Mustard: 90
Southern sandbur; 16 g ai/ha, preemergence
  Plant response rating, Sandbur: 65
Southern sandbur; 125 g ai/ha, preemergence
  Sandbur plant response rating: 100
Southern sandbur; Preemergence, 62 g ai/ha
  Plant response rating, Sandbur: 75
barnyardgrass; 16 g ai/ha, preemergence, scale 0 to 100 (0 no effect, 100 complete control)
  Plant response rating, Barnyardgrass: 60
barnyardgrass; 62 g ai/ha, Preemergence, scale 0 to 100
  Barnyardgrass plant response rating: 95
barnyardgrass; 125 g ai/ha, preemergence, scale 0 to 100
  Barnyardgrass plant response rating: 100
barnyardgrass; Preemergence, 31 g ai/ha, scale 0 to 100
  Plant response rating, Barnyardgrass: 70
Green foxtail; 62 g ai/ha, Preemergence
  Foxtail, Green plant response rating: 75
Green foxtail; 125 g ai/ha, preemergence
  Foxtail, Green plant response rating: 90
Green foxtail; Preemergence, 31 g ai/ha
  Plant response rating, Foxtail, Green: 65
Field bindweed; 16 g ai/ha, preemergence
  Plant response rating, Field Bindweed: 40
Field bindweed; 62 g ai/ha, Preemergence
  Field Bindweed plant response rating: 40
Field bindweed; 125 g ai/ha, preemergence
  Field Bindweed plant response rating: 40
Field bindweed; Preemergence, 31 g ai/ha
  Plant response rating, Field Bindweed: 40
Common ragweed; 16 g ai/ha, preemergence
  Plant response rating, Ragweed: 60
Common ragweed; Preemergence, 62 g ai/ha
  Plant response rating, Ragweed: 80
Common ragweed; Preemergence, 31 g ai/ha
  Plant response rating, Ragweed: 60
Prickly sida; 16 g ai/ha, preemergence
  Plant response rating, Prickly Sida: 60
Prickly sida; 62 g ai/ha, Preemergence
  Prickly Sida plant response rating: 90
Prickly sida; 125 g ai/ha, preemergence
  Prickly Sida plant response rating: 90
Prickly sida; Preemergence, 31 g ai/ha
  Plant response rating, Prickly Sida: 80
quackgrass; 16 g ai/ha, preemergence
  Plant response rating, Quackgrass: 75
quackgrass; 62 g ai/ha, Preemergence
  Quackgrass plant response rating: 95
quackgrass; 125 g ai/ha, preemergence
  Quackgrass plant response rating: 100
quackgrass; Preemergence, 31 g ai/ha
  Plant response rating, Quackgrass: 75
Surinam grass; 125 g ai/ha, preemergence
  Surinam Grass plant response rating: 100
Surinam grass; 62 g ai/ha
  Plant response rating, Surinam Grass: 98
Surinam grass; 31 g ai/ha
  Plant response rating, Surinam Grass: 40
Large crabgrass; 16 g ai/ha, preemergence
  Plant response rating, Crabgrass, Large: 35
Large crabgrass; 62 g ai/ha, Preemergence
  Crabgrass, Large plant response rating: 70
Large crabgrass; 125 g ai/ha, preemergence
  Crabgrass, Large plant response rating: 98
Large crabgrass; Preemergence, 31 g ai/ha
  Plant response rating, Crabgrass, Large: 50
bermudagrass; 16 g ai/ha, preemergence
  Plant response rating, Bermudagrass: 40
bermudagrass; 62 g ai/ha, Preemergence
  Bermudagrass plant response rating: 98
bermudagrass; 125 g ai/ha, preemergence
  Bermudagrass plant response rating: 100
bermudagrass; Preemergence, 31 g ai/ha
  Plant response rating, Bermudagrass: 80
guineagrass; 16 g ai/ha, preemergence
  Plant response rating, Guineagrass: 100
guineagrass; 62 g ai/ha, Preemergence
  Guineagrass plant response rating: 100
guineagrass; 125 g ai/ha, preemergence
  Guineagrass plant response rating: 100
guineagrass; Preemergence, 31 g ai/ha
  Plant response rating, Guineagrass: 100
Annual bluegrass; 16 g ai/ha, preemergence
  Plant response rating, Bluegrass: 65
Annual bluegrass; 62 g ai/ha, Preemergence
  Bluegrass plant response rating: 95
Annual bluegrass; 125 g ai/ha, preemergence
  Bluegrass plant response rating: 100
Annual bluegrass; Preemergence, 31 g ai/ha
  Plant response rating, Bluegrass: 75
Italian ryegrass; 125 g ai/ha, preemergence
  Ryegrass, Italian plant response rating: 100
Italian ryegrass; 62 g ai/ha
  Plant response rating, Ryegrass, Italian: 100
Italian ryegrass; 31 g ai/ha
  Plant response rating, Ryegrass, Italian: 75
